In patent publication US20110124723A1, “Compounds for Preventing and Treating Plasmodium Infections” (UNIVERSITE PIERRE ET MARIE CURIE (PARIS 6), priority 2007, published 2011):
Where a name gives a salt, the structure may show the parent alone.

Experiments:
[1] = tested on: P. yoelii sporozoites (265 BY strain); experiment: Challenge of mice with P. yoelii sporozoites, parasitemia in blood smears; format: in vivo; details: Swiss mice, 5,000 sporozoites IV; for reduction of parasitemia with respect to controls: after 12 days
Method: All animal were kept and used in accordance with institutional guidelines and European regulations. Female 6-week-old Swiss mice (René Janvier, Le Genest-Saint-Isle, France) weighing 24-31 g were randomly allotted to all groups.
The drugs tested were administered intra-peritoneally (IP). Monensin (MN) (Monensin A sodium salt, ref. M5273, Sigma) was diluted in PBS-methanol 2% and Nigericin (NG) (Nigericin sodium salt, ref. N7143, Sigma), another polyether ionophore antibiotic, in PBS-DMSO 2%.
The drugs were administrated on days −1, 0, +1, +2 (+40 h), and the mice challenged on day 0 by intravenous injection of 5,000 P. yoelii sporozoites (265 BY strain).
Group 1 received 25 mg/kg/day of MN and group 2 received PBS-methanol 2%. These groups received the drug and the solvent from day −1. Group 3 received 25 mg/kg/day of MN and group 4 received PBS-methanol 2% from day 0 post-infection. Group 5 received 35 mg/kg/day of NG and group 6 received PBS-DMSO 2% from day −1. Group 7 and 8 received 35 mg/kg/day of NG and PBS-DMSO 2% respectively from day 0 post-infection.
All groups were challenged with 5,000 sporozoites at day 0. Parasites were enumerated by blinded microscopic examination of Giemsa-stained tail-blood smears collected at day 3 until day 9, day 12 and day 15 post-infection. A mouse was considered negative when no parasites could be observed in 20,000 red blood cells (50 fields under a 50× light microscope objective) on any day during the period of observation.

[2] = tested on: pre-erythrocytic development stage of P. yoelii; experiment: Real-time PCR quantification of the liver stage parasite burden; format: in vivo; details: mice, 25 mg/kg IP on days 0 and +1; 2.5×10^5 sporozoites IV; liver 40 h post-infection
Method: MN was administered IP on days 0 and day +1. Group 1 received 25 mg/kg of MN, whereas the control groups received the MN solvent (PBS-Methanol 2%). Mice were then challenged on day 0 by intra-venous injection with 2.5×10^5 P. yoelii sporozoites and sacrificed 40 h post-infection.
A piece of liver (0.2 g) was harvested and total RNA extracted using the Micro to Midi Kit (Invitrogen, France) according to the manufacturer's instructions and treated with Dnase Turbo DNA free (Ambion, France). Five micrograms of total RNA was reverse transcribed by Superscript II (Invitrogen) and an equivalent of 100 ng RNA was used for each TaqMan® PCR reactions on a MX4000 multiplex quantitative PCR system (Stratagene, France).
Mouse β-actin primers (forward […] (SEQ ID NO: 4), reverse […] (SEQ ID NO: 5); Invitrogen) and probe (HEX-[…]-BHQ2 (SEQ ID NO: 6); MWG biotech) were used for normalisation.
P. yoelii 18S rRNA and mouse β-actin PCR fragments were cloned into plasmids and used in a 10-fold dilution series to determine a standard curve.
Absolute transcript copy number for each gene was calculated based on the external standard curve. Quantitative parasite burden was expressed as the ratio between absolute copy numbers of P. yoelii 18S ribosomal cDNA and mouse β-actin cDNA to account for experimental differences. TaqMan® test sample and plasmid standards were done in quadruplet.

P. yoelii sporozoites [3] = experiment: Sporozoite migration assay (HepG2CD81 cells, FITC-dextran, flow cytometry); format: cell-based; details: all concentrations (5 μM, 5 nM and 5 picomolar); 2 h at 37° C.; vs untreated sporozoites
Method: P. yoelii sporozoites treated with three concentrations (5 μM, 5 nM and 5 picomolar) of MN were incubated with HepG2CD81 cells for 2 h at 37° C. in the continued presence of with 0.5 mg/ml FITC-dextran. After 2 h at 37° C., cells were washed and fixed with PBS-formaldehyde 1%, and FITC-positive cells were counted by flow cytometry.

P. yoelii sporozoites [4] = experiment: Invasion assay, first experiment: pre-treatment of sporozoites, then hepatocytes, EEF count; format: cell-based; details: washed, 48 h with hepatocytes
Method: Two experiments were performed.
The first experiment consisted in pre-treatment of P. yoelii sporozoites with MN at 5 pM, 0.5 μM, or 5 μM, for 1 h at room temperature then washed and added to hepatocytes. Sporozoites controls were pre-treated with medium alone and incubated 1 h at room temperature in the same conditions. Parasites were then incubated with hepatocytes for 48 h at 37° C. in 5% CO2, stained, and examined microscopically to determine the quantity of exo-erythrocytic forms (EEF) (Basco et al., 1999; Mahmoudi et al., 2003).

P. yoelii sporozoites [5] = experiment: Invasion assay, second experiment: infecting hepatocytes with sporozoites in the presence of MN, EEF count; format: cell-based; details: all concentrations (50 pM, 1 μM, 10 μM) present for 3 h during infection, then 45 h culture
Method: The second experiment consisted in infecting hepatocytes with sporozoites in the presence of MN at 50 pM, 1 μM, or 10 μM. After 3 h of incubation, MN was eliminated and the cultures were maintained 45 h at 37° C. in 5% CO2.
The cultures were stained and the quantity of exo-erythrocytic forms (EEF) was determined microscopically.

P. yoelii sporozoites [6] = experiment: Maturation assay: hepatocyte cultures infected with sporozoites, then treated; format: cell-based; details: all concentrations (50 pM, 1 μM, 10 μM) for 45 h after 3 h infection and washing
Method: The experiment consisted in infecting hepatocytes cultures with P. yoelii sporozoites for 3 h, washing the cultures and then treating them with MN 50 pM, 1 μM, or 10 μM, for 45 h at 37° C.

P. yoelii blood stage = experiment: Blood stage infection of mice with P. yoelii-infected red blood cells; format: in vivo; details: 25 mg/kg at day-3, day-2, day-1 before infection
Method: Two groups of mice were treated at day-3, day-2 and day-1 before infection with MN (25 mg/kg) or solvent (PBS-Methanol-2%). At day 0 the mice were inoculated IP with 4×10^5 P. yoelii-infected red blood cells. From day 3 post-infection, an enumeration of parasites in blood smears was conducted until day 10 post-infection.

[7] = tested on: P. yoelii oocysts in Anopheles stephensi; experiment: Transmission to mosquito: oocysts in Anopheles stephensi midguts fed on treated mice; format: in vivo; details: Anopheles stephensi fed 2 hours on MN treated mice; 30 midguts dissected 8 days later
Method: The mice of the MN treated group and the control group of Example 3 were anesthetized and placed for 2 hours over a cage with 100 female laboratory-bred Anopheles stephensi. Oocysts were enumerated in 30 mosquito midguts dissected 8 days later.

Compound | protection from erythrocytic infection (mice with no parasite in blood smears) ([1]; 25 mg/kg/day IP daily for 3 days (treated, from day 0)) | protection from erythrocytic infection (mice with no parasite in blood smears) ([1]; 25 mg/kg/day IP daily for 4 days (pre-treated, from day -1)) | inhibition on parasite development (liver parasite burden, 18S rRNA/β-actin) [2] [%] | inhibition of sporozoites migration (P. yoelii sporozoites [3]) [%] | inhibition of parasite development (EEF) (P. yoelii sporozoites [4]; sporozoites pre-treated 1 h with 5 pM) [%] | inhibition of parasite development (EEF) (P. yoelii sporozoites [4]; sporozoites pre-treated 1 h with 0.5 μM) | inhibition of parasite development (EEF) (P. yoelii sporozoites [4]; sporozoites pre-treated 1 h with 5 μM) | inhibition of parasite development (EEF) (P. yoelii sporozoites [5]) | inhibition of parasite development (P. yoelii sporozoites [6]) | parasitemia course (P. yoelii blood stage; 4×10^5 infected red blood cells IP, blood smears day 3-10) | male gametocytes in blood (P. yoelii blood stage; vs untreated group) | oocysts in mosquito midguts [7] | reduction of parasitemia with respect to controls ([1]; 35 mg/kg/day IP daily for 3 days (treated)) [%] | reduction of parasitemia with respect to controls ([1]; 35 mg/kg/day IP daily for 4 days (pretreated)) [%]
CC[C@@]1([C@H]2O[C@H]([C@H]3O[C@@](O)(CO)[C@H](C)C[C@@H]3C)C[C@H]2C)CC[C@H]([C@@]2(C)CC[C@]3(C[C@H](O)[C@@H](C)[C@@H]([C@H](C)[C@H](OC)[C@@H](C)C(=O)[O-])O3)O2)O1.[Na+] [MN, Monensin A sodium salt] | 100 % of the mice | 100 % of the mice | 96.8 | 93 | 96.26 | complete inhibition | complete inhibition | totally inhibited parasite development | completely inhibited parasite development | Increasing parasitemia, although delayed by comparison with the control group | no male gametocytes were observed | No oocyst could be observed | – | –
CO[C@@H]1C[C@@H](C[C@H]2CC[C@H](C)[C@H]([C@@H](C)C(=O)O)O2)O[C@]2(O[C@](C)([C@H]3CC[C@@](C)([C@@H]4O[C@@H]([C@H]5O[C@@](O)(CO)[C@H](C)C[C@@H]5C)C[C@@H]4C)O3)C[C@H]2C)[C@@H]1C [NG, Nigericin sodium salt, reference compound] | – | – | – | – | – | – | – | – | – | – | – | – | 51 | 71
